In US20260274892A1, “MACROCYCLIC BROAD SPECTRUM ANTIBIOTICS” (RQx Pharmaceuticals, Inc., priority 2017, published 2026):

How the values were obtained:
[1] = system: Methicillin Resistant Staphylococcus aureus strain USA 200; experiment: Minimum inhibitory concentration (MIC), CLSI broth micro-dilution, S. aureus; type: cell-based; conditions: Staphylococcus aureus, MRSA / USA200, MRSA USA 200, cation adjusted Mueller Hinton Broth + 0.002% Tween-80, 35° C., 22 hours
Summary of the method: (§1)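 Colonies grown 20 h at 35° C on Trypticase Soy agar (MRSA) or Luria agar (E. coli) were suspended in cation-adjusted Mueller Hinton broth with 0.002% Tween-80. Suspensions were added at OD600 0.0005 to 10-point twofold compound dilutions, then incubated 22 h at 35° C.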

[2] = system: Escherichia coli ATCC 25922; experiment: Minimum inhibitory concentration (MIC), CLSI broth micro-dilution, E. coli; type: cell-based; conditions: Escherichia coli, ATCC25922, 22 h
Summary of the method: as §1

[3] = Table 6, cation adjusted Mueller Hinton Broth + 0.002% Tween-80, 35° C.

SMILES | MIC ([1]; Table 6) [µM] | MIC [2, 3] [µM] | MIC ([1]; Table 8) [µM] | MIC ([2]; Table 8, cation adjusted Mueller Hinton Broth + 0.002% Tween-80, 35° C.) [µM]
Cc1nc(-c2ccc(C(C)(C)C)cc2)ccc1C(=O)N[C@@H](CCN)C(=O)N(C)[C@@H]1C(=O)N[C@@H](C)C(=O)N[C@H](C(=O)NCC#N)Cc2ccc(O)c(c2)-c2cc1ccc2OCCN (racemic) [Compound 526, rac-(8S,11S,14S)-18-(2-aminoethoxy)-N-(cyanomethyl)-3-hydroxy-11-methyl-14-[methyl-[rac-(2S)-4-amino-2-[[6-(4-tert-butylphenyl)-2-methyl-pyridine-3-carbonyl]amino]butanoyl]amino]-10,13-dioxo-9,12-diazatricyclo[13.3.1.12,6]icosa-1(18),2(20),3,5,15(19),16-hexaene-8-carboxamide] | 0.047 | 0.33 | – | –
Cc1nc(-c2cccc(C(C)(C)C)c2)nc(C)c1C(=O)N[C@@H](CCN)C(=O)N(C)[C@@H]1C(=O)N[C@@H](C)C(=O)N[C@H](C(=O)NCC#N)Cc2ccc(OCCN)c(c2)-c2cc1ccc2OCCN (racemic) [Compound 263, rac-(8S,11S,14S)-3,18-bis(2-aminoethoxy)-N-(cyanomethyl)-11-methyl-14-[methyl-[rac-(2S)-4-amino-2-[[2-(3-tert-butylphenyl)-4,6-dimethyl-pyrimidine-5-carbonyl]amino]butanoyl]amino]-10,13-dioxo-9,12-diazatricyclo[13.3.1.12,6]icosa-1(18),2(20),3,5,15(19),16-hexaene-8-carboxamide] | 0.016 | 0.53 | – | –
CCCCc1ccc(Oc2nc(C)c(C(=O)N[C@@H](CCN)C(=O)N(C)[C@@H]3C(=O)N[C@@H](C)C(=O)N[C@H](C(=O)NCC#N)Cc4ccc(OCCN)c(c4)-c4cc3ccc4OCCN)c(C)n2)cc1 (racemic) [Compound 354, rac-(8S,11S,14S)-3,18-bis(2-aminoethoxy)-N-(cyanomethyl)-11-methyl-14-[methyl-[rac-(2S)-4-amino-2-[[2-(4-butylphenoxy)-4,6-dimethyl-pyrimidine-5-carbonyl]amino]butanoyl]amino]-10,13-dioxo-9,12-diazatricyclo[13.3.1.12,6]icosa-1(18),2(20),3,5,15(19),16-hexaene-8-carboxamide] | 0.016 | 1.5 | – | –
CCc1nc(-c2ccc(CC(C)C)cc2)ncc1C(=O)N[C@@H](CCN)C(=O)N(C)[C@@H]1C(=O)N[C@@H](C)C(=O)N[C@H](C(=O)NCC#N)Cc2ccc(OCCN)c(c2)-c2cc1ccc2OCCN (racemic) [Compound 417, rac-(8S,11S,14S)-3,18-bis(2-aminoethoxy)-N-(cyanomethyl)-11-methyl-14-[methyl-[rac-(2S)-4-amino-2-[[4-ethyl-2-(4-isobutylphenyl)pyrimidine-5-carbonyl]amino]butanoyl]amino]-10,13-dioxo-9,12-diazatricyclo[13.3.1.12,6]icosa-1(18),2(20),3,5,15(19),16-hexaene-8-carboxamide] | 0.0062 | 0.13 | – | –
Cc1nc(-c2ccc(C3(C)CC3)cc2)nc(C)c1C(=O)N[C@@H](CCN)C(=O)N(C)[C@@H]1C(=O)N[C@@H](C)C(=O)N[C@H](C(=O)NCC#N)Cc2ccc(OCCN)c(c2)-c2cc1ccc2OCCN (racemic) [Compound 280, rac-(8S,11S,14S)-3,18-bis(2-aminoethoxy)-N-(cyanomethyl)-11-methyl-14-[methyl-[rac-(2S)-4-amino-2-[[4,6-dimethyl-2-[4-(1-methylcyclopropyl)phenyl]pyrimidine-5-carbonyl]amino]butanoyl]amino]-10,13-dioxo-9,12-diazatricyclo[13.3.1.12,6]icosa-1(18),2(20),3,5,15(19),16-hexaene-8-carboxamide] | 0.031 | 0.13 | – | –
C[C@@H]1NC(=O)[C@@H](N(C)C(=O)[C@H](CCN)NC(=O)[C@H]2CC[C@H](c3ccc(C(C)(C)C)cc3)CC2)c2ccc(OCCN)c(c2)-c2cc(ccc2OCCN)C[C@@H](C(=O)NCC#N)NC1=O [Compound 391, rac-(8S,11S,14S)-3,18-bis(2-aminoethoxy)-N-(cyanomethyl)-11-methyl-14-[methyl-[rac-(2S)-4-amino-2-[[4-(4-tert-butylphenyl)cyclohexanecarbonyl]amino]butanoyl]amino]-10,13-dioxo-9,12-diazatricyclo[13.3.1.12,6]icosa-1(18),2(20),3,5,15(19),16-hexaene-8-carboxamide] | 0.031 | 0.25 | – | –
C[C@@H]1NC(=O)[C@@H](N(C)C(=O)[C@H](CCN)NC(=O)c2ccc(-c3ccc(C(C)(C)C)cc3)cc2N)c2ccc(OCCN)c(c2)-c2cc(ccc2OCCN)C[C@@H](C(=O)NCC#N)NC1=O (racemic) [Compound 372, rac-(8S,11S,14S)-3,18-bis(2-aminoethoxy)-N-(cyanomethyl)-11-methyl-14-[methyl-[rac-(2S)-4-amino-2-[[2-amino-4-(4-tert-butylphenyl)benzoyl]amino]butanoyl]amino]-10,13-dioxo-9,12-diazatricyclo[13.3.1.12,6]icosa-1(18),2(20),3,5,15(19),16-hexaene-8-carboxamide] | 0.023 | 0.38 | – | –
CCCCCCc1ccc(C(=O)N2C[C@@H](CN)C[C@H]2C(=O)N(C)[C@@H]2C(=O)N[C@@H](C)C(=O)N[C@H](C(=O)NCC#N)Cc3ccc(OCCN)c(c3)-c3cc2ccc3OCCN)c(C)c1 (racemic) [Compound 461, rac-(8S,11S,14S)-3,18-bis(2-aminoethoxy)-N-(cyanomethyl)-11-methyl-14-[methyl-[rac-(2S,4R)-4-(aminomethyl)-1-(4-hexyl-2-methyl-benzoyl)pyrrolidine-2-carbonyl]amino]-10,13-dioxo-9,12-diazatricyclo[13.3.1.12,6]icosa-1(18),2(20),3,5,15(19),16-hexaene-8-carboxamide] | 0.051 | 1.1 | – | –
Cc1nc(-c2ccc(C3(C)COC3)cc2)ncc1C(=O)N[C@@H](CCN)C(=O)N(C)[C@@H]1C(=O)N[C@@H](C)C(=O)N[C@H](C(=O)NCC#N)Cc2ccc(OCCN)c(c2)-c2cc1ccc2OCCN (racemic) [Compound 238, rac-(8S,11S,14S)-3,18-bis(2-aminoethoxy)-N-(cyanomethyl)-11-methyl-14-[methyl-[rac-(2S)-4-amino-2-[[4-methyl-2-[4-(3-methyloxetan-3-yl)phenyl]pyrimidine-5-carbonyl]amino]butanoyl]amino]-10,13-dioxo-9,12-diazatricyclo[13.3.1.12,6]icosa-1(18),2(20),3,5,15(19),16-hexaene-8-carboxamide] | 0.53 | 2.1 | – | –
Cc1nc(-c2ccc(C(C)(C)C)cc2)c(O)cc1C(=O)N[C@@H](CCN)C(=O)N(C)[C@@H]1C(=O)N[C@@H](C)C(=O)N[C@H](C(=O)NCC#N)Cc2ccc(OCCN)c(c2)-c2cc1ccc2OCCN (racemic) [Compound 404, rac-(8S,11S,14S)-3,18-bis(2-aminoethoxy)-N-(cyanomethyl)-11-methyl-14-[methyl-[rac-(2S)-4-amino-2-[[6-(4-tert-butylphenyl)-5-hydroxy-2-methyl-pyridine-3-carbonyl]amino]butanoyl]amino]-10,13-dioxo-9,12-diazatricyclo[13.3.1.12,6]icosa-1(18),2(20),3,5,15(19),16-hexaene-8-carboxamide] | 0.094 | 0.38 | – | –
Cc1cc(-c2ccc(C(C)(C)C)cc2)nc(N)c1C(=O)N[C@@H](CCN)C(=O)N(C)[C@@H]1C(=O)N[C@@H](C)C(=O)N[C@H](C(=O)NCC#N)Cc2ccc(OCCN)c(c2)-c2cc1ccc2OCCN (racemic) [Compound 414, rac-(8S,11S,14S)-3,18-bis(2-aminoethoxy)-N-(cyanomethyl)-11-methyl-14-[methyl-[rac-(2S)-4-amino-2-[[2-amino-6-(4-tert-butylphenyl)-4-methyl-pyridine-3-carbonyl]amino]butanoyl]amino]-10,13-dioxo-9,12-diazatricyclo[13.3.1.12,6]icosa-1(18),2(20),3,5,15(19),16-hexaene-8-carboxamide] | 0.016 | 0.25 | – | –
C[C@@H]1NC(=O)[C@@H](N(C)C(=O)[C@H](CCN)NC(=O)c2cnn(-c3ccc(C(C)(C)C)cc3)c(=O)c2)c2ccc(OCCN)c(c2)-c2cc(ccc2OCCN)C[C@@H](C(=O)NCC#N)NC1=O (racemic) [Compound 384, rac-(8S,11S,14S)-3,18-bis(2-aminoethoxy)-N-(cyanomethyl)-11-methyl-14-[methyl-[rac-(2S)-4-amino-2-[[1-(4-tert-butylphenyl)-6-oxo-pyridazine-4-carbonyl]amino]butanoyl]amino]-10,13-dioxo-9,12-diazatricyclo[13.3.1.12,6]icosa-1(18),2(20),3,5,15(19),16-hexaene-8-carboxamide] | 0.033 | 0.4 | – | –
CCCCCCOc1ccc(-c2nc(C)c(C(=O)N[C@@H](CCN)C(=O)N(C)[C@@H]3C(=O)N[C@@H](C)C(=O)N[C@H](C(=O)O)Cc4ccc(OCCN)c(c4)-c4cc3ccc4OCCN)c(C)n2)cc1 (racemic) [Compound 641, rac-(8S,11S,14S)-3,18-bis(2-aminoethoxy)-11-methyl-14-[methyl-[rac-(2S)-4-amino-2-[[2-(4-hexoxyphenyl)-4,6-dimethyl-pyrimidine-5-carbonyl]amino]butanoyl]amino]-10,13-dioxo-9,12-diazatricyclo [13.3.1.12,6]icosa-1(18),2(20),3,5,15(19), 16-hexaene-8-carboxylic acid] | – | – | 0.047 | 0.094
